Experimental data: patent US8871753B2, “Macrocyclic compounds and their use as kinase inhibitors” (Incyte Corporation, priority 2008, dated 2014)
Structures can show the parent of a compound that is named as a salt. Where two headings read alike, the source gives them in different places.

What was measured:
Type in all cases: biochemical
[1] = molecular target: T1, human JAK1 (a.a. 837-1142) (Homo sapiens, UniProt P23458); assay: In vitro JAK kinase assay (HTRF, phosphorylation of a biotinylated peptide), JAK1; conditions: read-out: JAK1 IC50
T1 construct: human JAK1 (a.a. 837-1142); His tag (N); made in house; host or cells: insect cells (baculovirus)
T1 sequence (P23458 849-1154): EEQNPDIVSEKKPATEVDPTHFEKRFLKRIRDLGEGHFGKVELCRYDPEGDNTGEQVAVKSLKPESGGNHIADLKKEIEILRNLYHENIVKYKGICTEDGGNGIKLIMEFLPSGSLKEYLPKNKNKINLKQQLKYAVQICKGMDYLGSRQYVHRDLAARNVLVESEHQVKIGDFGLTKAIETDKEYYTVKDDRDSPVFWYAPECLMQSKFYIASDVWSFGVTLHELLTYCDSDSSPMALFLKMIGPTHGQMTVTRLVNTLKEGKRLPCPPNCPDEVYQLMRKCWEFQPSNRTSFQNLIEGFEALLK
Summary of the method: (§1)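 Phosphorylation of a biotinylated peptide by the JAK kinase domain, detected by HTRF with Eu-Py20 and SA-APC. ATP was 90 μM for JAK1, 30 μM for JAK2 and 3 μM for JAK3. Reactions ran 1 h at room temperature and were stopped with EDTA, followed by 40 min antibody binding.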

[2] = molecular target: T2, human JAK2 (a.a. 828-1132) (Homo sapiens, UniProt O60674); assay: In vitro JAK kinase assay (HTRF, phosphorylation of a biotinylated peptide), JAK2
T2 construct: JAK2 (a.a. 828-1132); His tag (N); made in house; host or cells: insect cells (baculovirus)
T2 sequence (O60674 828-1132): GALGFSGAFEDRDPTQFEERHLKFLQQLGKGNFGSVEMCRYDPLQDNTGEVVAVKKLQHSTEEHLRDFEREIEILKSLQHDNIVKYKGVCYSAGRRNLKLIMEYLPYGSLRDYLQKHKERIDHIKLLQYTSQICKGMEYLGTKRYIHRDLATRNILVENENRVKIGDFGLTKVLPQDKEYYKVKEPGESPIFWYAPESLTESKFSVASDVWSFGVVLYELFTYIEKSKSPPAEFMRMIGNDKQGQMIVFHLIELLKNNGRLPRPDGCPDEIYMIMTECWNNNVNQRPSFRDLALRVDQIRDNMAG
Summary of the method: as §1

[3] = molecular target: T3, human JAK3 (a.a. 781-1124) (Homo sapiens, UniProt P52333); assay: In vitro JAK kinase assay (HTRF, phosphorylation of a biotinylated peptide), JAK3
T3 construct: JAK3 (a.a. 781-1124); His tag (N); made in house; host or cells: insect cells (baculovirus)
T3 sequence (P52333 781-1124): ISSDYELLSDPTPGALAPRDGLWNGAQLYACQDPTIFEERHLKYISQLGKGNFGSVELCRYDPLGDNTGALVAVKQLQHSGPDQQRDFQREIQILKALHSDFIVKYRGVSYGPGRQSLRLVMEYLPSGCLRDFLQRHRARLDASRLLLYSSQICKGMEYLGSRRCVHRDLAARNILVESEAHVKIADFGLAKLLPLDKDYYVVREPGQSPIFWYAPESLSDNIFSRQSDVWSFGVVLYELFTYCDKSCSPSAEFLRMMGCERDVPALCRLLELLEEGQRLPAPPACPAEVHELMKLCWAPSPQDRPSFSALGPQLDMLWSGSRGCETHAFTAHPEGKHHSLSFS
Summary of the method: as §1

TYK2 = TYK2 (Homo sapiens, UniProt P29597); assay: TYK2 kinase inhibition (Table A1)
TYK2, sequence (P29597 whole entry): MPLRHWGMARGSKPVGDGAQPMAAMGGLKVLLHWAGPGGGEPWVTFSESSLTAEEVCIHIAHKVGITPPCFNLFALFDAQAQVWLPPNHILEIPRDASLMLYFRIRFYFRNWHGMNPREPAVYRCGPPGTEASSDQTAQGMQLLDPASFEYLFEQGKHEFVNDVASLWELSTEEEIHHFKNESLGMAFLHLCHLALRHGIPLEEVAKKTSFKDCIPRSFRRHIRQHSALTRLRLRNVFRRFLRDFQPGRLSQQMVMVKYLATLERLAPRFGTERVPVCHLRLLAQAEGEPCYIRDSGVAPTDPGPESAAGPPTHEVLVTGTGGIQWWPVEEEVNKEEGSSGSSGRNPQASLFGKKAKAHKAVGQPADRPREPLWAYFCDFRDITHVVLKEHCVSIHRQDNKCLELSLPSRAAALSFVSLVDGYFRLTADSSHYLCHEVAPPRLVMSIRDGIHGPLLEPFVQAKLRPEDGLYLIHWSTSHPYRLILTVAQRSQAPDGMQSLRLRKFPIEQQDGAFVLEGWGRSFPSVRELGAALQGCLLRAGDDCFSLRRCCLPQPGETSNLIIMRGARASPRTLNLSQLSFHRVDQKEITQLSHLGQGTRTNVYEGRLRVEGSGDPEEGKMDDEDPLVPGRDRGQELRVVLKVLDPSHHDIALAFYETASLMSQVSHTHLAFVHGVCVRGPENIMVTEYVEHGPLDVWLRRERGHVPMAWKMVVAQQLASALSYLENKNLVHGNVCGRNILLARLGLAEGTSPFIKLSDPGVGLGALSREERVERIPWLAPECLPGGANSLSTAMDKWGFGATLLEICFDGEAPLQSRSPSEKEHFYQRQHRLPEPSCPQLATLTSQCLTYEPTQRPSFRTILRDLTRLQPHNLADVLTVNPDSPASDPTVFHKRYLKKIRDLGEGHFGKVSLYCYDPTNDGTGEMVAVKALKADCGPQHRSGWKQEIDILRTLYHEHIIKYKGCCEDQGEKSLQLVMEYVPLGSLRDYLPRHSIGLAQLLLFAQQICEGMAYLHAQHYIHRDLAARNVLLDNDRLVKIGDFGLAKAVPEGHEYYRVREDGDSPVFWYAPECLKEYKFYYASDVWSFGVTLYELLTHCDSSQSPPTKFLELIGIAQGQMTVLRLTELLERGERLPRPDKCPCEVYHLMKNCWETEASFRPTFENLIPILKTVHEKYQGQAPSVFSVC

[4] = molecular target: T4, Recombinant Human Anaplastic Lymphoma Kinase (Homo sapiens, UniProt Q9UM73); assay: ALK HTRF kinase assay
T4 construct: purchased Invitrogen, Carlsbad, Calif
T4 sequence (Q9UM73 19-1620): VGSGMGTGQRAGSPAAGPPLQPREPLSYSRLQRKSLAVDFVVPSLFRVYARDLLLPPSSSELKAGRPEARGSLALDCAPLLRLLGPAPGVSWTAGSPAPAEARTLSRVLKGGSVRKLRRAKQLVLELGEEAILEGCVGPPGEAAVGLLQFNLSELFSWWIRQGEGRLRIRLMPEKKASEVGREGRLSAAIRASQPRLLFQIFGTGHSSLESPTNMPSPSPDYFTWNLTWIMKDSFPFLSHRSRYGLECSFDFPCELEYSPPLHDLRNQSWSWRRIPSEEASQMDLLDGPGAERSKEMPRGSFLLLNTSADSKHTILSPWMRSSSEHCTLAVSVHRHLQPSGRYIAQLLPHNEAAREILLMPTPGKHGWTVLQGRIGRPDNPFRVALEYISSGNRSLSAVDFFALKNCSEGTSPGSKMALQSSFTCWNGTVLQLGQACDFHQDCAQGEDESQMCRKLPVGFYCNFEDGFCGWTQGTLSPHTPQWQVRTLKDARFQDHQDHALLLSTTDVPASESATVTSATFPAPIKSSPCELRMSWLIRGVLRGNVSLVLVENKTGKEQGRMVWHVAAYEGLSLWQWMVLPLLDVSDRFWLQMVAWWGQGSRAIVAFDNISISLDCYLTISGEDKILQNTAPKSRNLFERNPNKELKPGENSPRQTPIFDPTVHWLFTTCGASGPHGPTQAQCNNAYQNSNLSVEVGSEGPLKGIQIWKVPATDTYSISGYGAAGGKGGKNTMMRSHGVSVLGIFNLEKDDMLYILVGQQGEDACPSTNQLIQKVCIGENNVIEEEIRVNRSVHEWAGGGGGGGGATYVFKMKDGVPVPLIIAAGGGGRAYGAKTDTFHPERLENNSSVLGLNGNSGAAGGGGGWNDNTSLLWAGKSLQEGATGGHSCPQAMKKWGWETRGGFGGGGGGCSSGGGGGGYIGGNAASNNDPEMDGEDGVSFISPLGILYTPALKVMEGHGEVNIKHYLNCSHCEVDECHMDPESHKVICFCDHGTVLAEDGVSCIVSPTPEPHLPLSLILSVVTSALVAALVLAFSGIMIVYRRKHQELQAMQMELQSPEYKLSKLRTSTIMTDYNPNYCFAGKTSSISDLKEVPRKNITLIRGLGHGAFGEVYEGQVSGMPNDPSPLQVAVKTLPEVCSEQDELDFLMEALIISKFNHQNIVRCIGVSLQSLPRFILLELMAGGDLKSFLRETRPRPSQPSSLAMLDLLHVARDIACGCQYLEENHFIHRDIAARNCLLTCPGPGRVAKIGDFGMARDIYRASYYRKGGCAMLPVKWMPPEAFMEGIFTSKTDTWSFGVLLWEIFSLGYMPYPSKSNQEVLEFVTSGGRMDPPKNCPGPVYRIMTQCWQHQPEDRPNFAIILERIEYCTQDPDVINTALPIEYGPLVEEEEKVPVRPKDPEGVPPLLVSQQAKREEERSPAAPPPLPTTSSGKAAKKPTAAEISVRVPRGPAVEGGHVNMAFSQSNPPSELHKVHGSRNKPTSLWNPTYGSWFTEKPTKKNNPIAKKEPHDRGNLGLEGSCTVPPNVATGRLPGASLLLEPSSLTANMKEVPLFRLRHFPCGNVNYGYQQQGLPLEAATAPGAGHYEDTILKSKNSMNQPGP
Summary of the method: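 Biotinylated peptide substrate, recombinant human ALK; detection via europium-chelate antibody to phosphotyrosine paired with streptavidin-APC. Potency expressed as IC50 from four-parameter curve fitting.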

[5] = Table B1, cells without percent sign
[6] = compound at a concentration of 500 nM or 1 mM (not specified), cells shown as percentage
[7] = method AA1 (90 μM ATP) or AA2 (1000 μM ATP), not stated per value
[8] = method AA1 (30 μM ATP) or AA2 (1000 μM ATP), not stated per value
[9] = method AA1 (3 μM ATP) or AA2 (1000 μM ATP), not stated per value
[10] = compound at 500 nM or 1 mM, 90 μM ATP

An IC50 ([1]; Table D1) of 18 nM, an IC50 ([2]; Table D1) of 2.1 nM and an IC50 ([3]; Table D1) of 41 nM were found for `O=C(Nc1cc2cc(c1)OCCSc1cccc(c1)Nc1nc(ncc1Cl)N2)c1ccc2occc2c1` [Example D61, N-[6-Chloro-17-oxa-14-thia-2,4,8,24-tetraazatetracyclo[16.3.1.1(3,7).1(9,13)]tetracosa-1(22),3(24),4,6,9(23),10,12,18,20-nonaen-20-yl]-1-benzofuran-5-carboxamide trifluoroacetate] in this work. The IC50 (TYK2; Table D1) was 8 nM and the IC50 ([4]; Table D1, 90 μM ATP) was > 10000 nM.

An IC50 ([1]; Table B1) of 0.6 nM, an IC50 ([2]; Table B1) of 0.1 nM and an IC50 ([3]; Table B1) of 5.3 nM were found for `N#Cc1ccc(S(=O)(=O)Nc2ccc3cc2CCc2cccc(c2)Nc2ncc(Cl)c(n2)N3)cc1` [Example B154, N-[6-Chloro-2,4,8,22-tetraazatetracyclo[14.3.1.1(3,7).1(9,13)]docosa-1(20), 3(22),4,6,9(21),10,12,16,18-nonaen-12-yl]-4-cyanobenzenesulfonamide trifluoroacetate] in this work. It also gave an IC50 (TYK2; Table B1) of 0.83 nM and an IC50 [4, 5] of 280 nM.

An IC50 ([1]; Table B1) of 2.6 nM, an IC50 ([2]; Table B1) of 4.7 nM and an IC50 ([3]; Table B1) of 38 nM were found for `O=C(Nc1ccc2cc1CCc1cccc(c1)Nc1ncc(Cl)c(n1)N2)N[C@H]1CCN(c2ncccn2)C1` [Example B262, N-[6-Chloro-2,4,8,22-tetraazatetracyclo[14.3.1.1(3,7).1(9,13)]docosa-1(20),3(22),4,6,9(21),10,12,16,18-nonaen-12-yl]-N′-[(3S)-1-pyrimidin-2-ylpyrrolidin-3-yl]urea bis(trifluoroacetate)] in this work. For the same compound, the IC50 (TYK2; Table B1) was 8.7 nM and the “ALK % of inhibition at a concentration of 500 nM or 1 mM” value (shortened to “ALK % of inhibition”) [4, 6] was 19%.

An IC50 ([1]; Table D1) of 3.8 nM, an IC50 ([2]; Table D1) of 0.2 nM and an IC50 ([3]; Table D1) of 8.4 nM were found for `O=C(Cc1ccccc1)Nc1cc2cc(c1)OCCSc1cccc(c1)Nc1nc(ncc1Cl)N2` [Example D64, trifluoroacetate] in this work. For the same compound, the IC50 (TYK2; Table D1) was 3.7 nM and the IC50 ([4]; Table D1, 90 μM ATP) was 450 nM.

An IC50 [1, 7] of 27 nM, an IC50 [2, 8] of 13 nM and an IC50 [3, 9] of 56 nM were found for `O=C(Nc1ccc2cc1CCc1cccc(c1)Nc1ncc(Cl)c(n1)N2)C1CCCN(C(=O)c2ccccc2)C1` (stereo not shown) [Example A48, 1-Benzoyl-N-[6-chloro-2,4,8,22-tetraazatetracyclo[14.3.1.1(3,7).1(9,13)]docosa-1(20),3(22),4,6,9(21),10,12,16,18-nonaen-12-yl]piperidine-3-carboxamide trifluoroacetate] in this work. The IC50 (TYK2) was 92 nM and the “ALK % of inhibition” value [4, 10] was 28%.

An IC50 ([1]; Table B1) of 0.81 nM, an IC50 ([2]; Table B1) of 2.9 nM and an IC50 ([3]; Table B1) of 13 nM were found for `CNC(=O)Nc1ccc2cc1CCc1cccc(c1)Nc1ncc(Cl)c(n1)N2` [Example B114, N-[6-Chloro-2,4,8,22-tetraazatetracyclo[14.3.1.1(3,7).1(9,13)]docosa-1(20), 3(22),4,6,9(21),10,12,16,18-nonaen-12-yl]-N′-methylurea trifluoroacetate] in this work. The IC50 (TYK2; Table B1) was 5.4 nM and the “ALK % of inhibition” value [4, 6] was 24%.

An IC50 [1, 7] of 14 nM, an IC50 [2, 8] of 21 nM and an IC50 [3, 9] of 104 nM were found for `O=C(COc1ccc2cc1CCc1cccc(c1)Nc1ncc(Cl)c(n1)N2)N1CCN(C(=O)Nc2ccc(Cl)nc2)CC1` [Example A10, 4-(6-Chloropyridin-3-yl)-4-({[6-chloro-2,4,8,22-tetraazatetracyclo[14.3.1.1(3,7).1(9,13)]docosa-1(20),3(22),4,6,9(21),10,12,16,18-nonaen-12-yl]oxy}acetyl)piperazine-1-carboxamide bis(trifluoroacetate)] in this work. The IC50 (TYK2) was 50 nM and the “ALK % of inhibition” value [4, 10] was 5%.

An IC50 ([1]; Table B1) of 44 nM, an IC50 ([2]; Table B1) of 19 nM and an IC50 ([3]; Table B1) of 102 nM were found for `O=S(=O)(Nc1cc2cc(c1)Nc1nc(ncc1Cl)Nc1cccc(c1)CC2)c1ccccc1` [Example B203, N-[6-Chloro-2,4,8,22-tetraazatetracyclo[14.3.1.1(3,7).1(9,13)]docosa-1(20),3(22),4,6,9(21),10,12,16,18-nonaen-11-yl]benzenesulfonamide trifluoroacetate] in this work. The IC50 (TYK2; Table B1) was 34 nM and the IC50 [4, 5] was > 10000 nM.

An IC50 ([1]; Table B1) of 0.44 nM, an IC50 ([2]; Table B1) of 0.28 nM and an IC50 ([3]; Table B1) of 2.5 nM were found for `Cn1cccc1C(=O)Nc1ccc2cc1CCc1cccc(c1)Nc1ncc(Cl)c(n1)N2` [Example B50, N-[6-Chloro-2,4,8,22-tetraazatetracyclo[14.3.1.1(3,7).1(9,13)]docosa-1(20), 3(22),4,6,9(21),10,12,16,18-nonaen-12-yl]-1-methyl-1H-pyrrole-2-carboxamide trifluoroacetate] in this work. It also gave an IC50 (TYK2; Table B1) of 2.3 nM and an IC50 [4, 5] of 230 nM.

An IC50 ([1]; Table B1) of 7 nM, an IC50 ([2]; Table B1) of 20 nM and an IC50 ([3]; Table B1) of 151 nM were found for `CCc1cccc(NC(=O)Nc2ccc3cc2CCc2cccc(c2)Nc2ncc(Cl)c(n2)N3)c1` [Example B99, N-[6-Chloro-2,4,8,22-tetraazatetracyclo[14.3.1.1(3,7).1(9,13)]docosa-1(20), 3(22),4,6,9(21),10,12,16,18-nonaen-12-yl]-N′-(3-ethylphenyl)urea trifluoroacetate] in this work. The IC50 (TYK2; Table B1) was 33 nM and the “ALK % of inhibition” value [4, 6] was 37%.

An IC50 ([1]; Table B1) of 12 nM, an IC50 ([2]; Table B1) of 14 nM and an IC50 ([3]; Table B1) of 2.1 nM were found for `N#CNC(=O)Nc1ccc2cc1CCc1cccc(c1)Nc1ncc(Cl)c(n1)N2` [Example B323, N-[6-chloro-2,4,8,22-tetraazatetracyclo[14.3.1.1(3,7).1(9,13)]docosa-1(20),3(22),4,6,9(21),10,12,16,18-nonaen-12-yl]-N′-cyanourea trifluoroacetate] in this work. For the same compound, the IC50 (TYK2; Table B1) was 0.89 nM and the “ALK % of inhibition” value ([4]; percentage inhibition of the example compound at a concentration of 500 nM or 1 mM (not specified which)) was 20%.

An IC50 ([1]; Table B1) of 1.4 nM, an IC50 ([2]; Table B1) of 0.55 nM and an IC50 ([3]; Table B1) of 3.6 nM were found for `Cc1noc(C)c1C(=O)Nc1ccc2cc1CCc1cccc(c1)Nc1ncc(Cl)c(n1)N2` [Example B40, N-[6-Chloro-2,4,8,22-tetraazatetracyclo[14.3.1.1(3,7).1(9,13)]docosa-1(20), 3(22),4,6,9(21),10,12,16,18-nonaen-12-yl]-3,5-dimethylisoxazole-4-carboxamide trifluoroacetate] in this work. It also gave an IC50 (TYK2; Table B1) of 2.1 nM and an IC50 [4, 5] of 430 nM.

An IC50 ([1]; Table D1) of 19 nM, an IC50 ([2]; Table D1) of 7.3 nM and an IC50 ([3]; Table D1) of 13 nM were found for `Clc1cnc2nc1Nc1cccc(c1)CSc1cccc(c1)N2` [Example D2, 6-Chloro-15-thia-2,4,8,22-tetraazatetracyclo[14.3.1.1(3,7).1(9,13)]docosa-1(20),3(22),4,6,9(21),10,12,16,18-nonaene trifluoroacetate] in this work. For the same compound, the IC50 (TYK2; Table D1) was 25 nM and the IC50 ([4]; Table D1, 90 μM ATP) was 774 nM.

For `O=C(CC1CCN(c2ncc(F)cn2)CC1)Nc1ccc2cc1CCc1cncc(c1)Nc1ncc(Cl)c(n1)N2` [Example A169, N-[6-Chloro-2,4,8,18,22-pentaazatetracyclo[14.3.1.1(3,7).1(9,13)]docosa-1(20),3(22),4,6,9(21),10,12,16,18-nonaen-12-yl]-2-[1-(5-fluoropyrimidin-2-yl)piperidin-4-yl]acetamide tris(trifluoroacetate)], the IC50 [1, 7] was 26 nM, the IC50 [2, 8] was 131 nM and the IC50 [3, 9] was > 1000 nM. The IC50 (TYK2) was 319 nM and the “ALK % of inhibition” value [4, 10] was 23%.

An IC50 ([1]; Table B1) of 9.5 nM, an IC50 ([2]; Table B1) of 29 nM and an IC50 ([3]; Table B1) of 81 nM were found for `CN1CC[C@H](NC(=O)Nc2ccc3cc2CCc2cccc(c2)Nc2ncc(Cl)c(n2)N3)C1` [Example B261, N-[6-Chloro-2,4,8,22-tetraazatetracyclo[14.3.1.1(3,7).1(9,13)]docosa-1(20),3(22),4,6,9(21),10,12,16,18-nonaen-12-yl]-N′-[(3S)-1-methylpyrrolidin-3-yl]urea bis(trifluoroacetate)] in this work. The IC50 (TYK2; Table B1) was 81 nM and the “ALK % of inhibition” value [4, 6] was 24%.

For `Cc1noc(C)c1NC(=O)N1CCC(CC(=O)Nc2ccc3cc2CCc2cncc(c2)Nc2ncc(Cl)c(n2)N3)CC1` [Example A145, 4-(2-{[6-Chloro-2,4,8,18,22-pentaazatetracyclo[14.3.1.1(3,7).1(9,13)]docosa-1(20),3(22),4,6,9(21),10,12,16,18-nonaen-12-yl]amino}-2-oxoethyl)-N-(3,5-dimethylisoxazol-4-yl)piperidine-1-carboxamide bis(trifluoroacetate)], the IC50 [1, 7] was 16 nM, the IC50 [2, 8] was 30 nM and the IC50 [3, 9] was > 100 nM. For the same compound, the IC50 (TYK2) was 43 nM and the “ALK % of inhibition” value ([4]; compound at 500 nM or 1 mM, 90 μM ATP, bis(trifluoroacetate)) was 21%.

`CN(C(=O)Nc1ccc2cc1CCc1cccc(c1)Nc1ncc(Cl)c(n1)N2)[C@H]1CCN(Cc2ccccc2)C1` [Example B283, N-[(3S)-1-Benzylpyrrolidin-3-yl]-N′-[6-chloro-2,4,8,22-tetraazatetracyclo[14.3.1.1(3,7).1(9,13)]docosa-1(20),3(22),4,6,9(21),10,12,16,18-nonaen-12-yl]-N-methylurea] was tested, and the IC50 ([1]; Table B1) was 141 nM, the IC50 ([2]; Table B1) was 165 nM and the IC50 ([3]; Table B1) was > 1000 nM. For the same compound, the IC50 (TYK2; Table B1) was 550 nM and the “ALK % of inhibition” value [4, 6] was 30%.
